Reference: US8119629B2, “Carboxamide GABAA α2 modulators” (Bristol-Meyers Squibb Company, priority 2007, dated 2012)
Structures can show the parent of a compound that is named as a salt.

What follows are compounds tested against T1, rat GABAA α2β2γ2 Receptors (Rattus norvegicus, UniProt P23576) (assay: PatchXpress 7000A automated parallel patch-clamp: potentiation of GABA EC20 current in HEK293 cells). Details: percent increase in mean GABA EC20 current response; HEK293 cells stably expressing rat GABAA α2β2γ2; voltage-clamped at −60 mV; read-out: GABAA α2 EP EMAX (%).
T1 construct: expressed in transfected cells; pIRES Neo2 / Hygro2 / Puro2 vectors
Format: cell-based
Procedure: Cell Line Generation and Transient Expression. In order to generate stable clonal lines expressing GABAA configurations containing α2β2γ2 subunits, HEK293 cells were transfected with 2 μg of the subunit, using the Invitrogen Lipofectamine PLUS protocol. The following DNA and vector were used for the stable transfection: α2 subunits in pIRES Neo2, β2 subunit in pIRES Hygro2, and a γ2 subunit in pIRES Puro2. Transfectants were selected with G418, Hygromycin B, and Puromycin antibiotics and cloned by limiting dilution. For transient expression, transfections were performed using the Amaxa transfection protocol and 2 μg DNA of the GABAA receptor subunit using Amaxa transfection protocol. Cells were used for experiments 24-72 hrs post transfection.
PatchXpress® 7000A Automated Parallel Patch-Clamp System. HEK293 cells stably expressing recombinant the rat GABAA/α2β2γ2 configuration were harvested by a single DPBS wash followed by 0.025% Trypsin-EDTA treatment for one minute at room temperature. A 6-ml cell suspension (1.7×10^5 cells/ml) was centrifuged at 500 rpm for 60 s. The cell pellet was gently agitated, suspended in 150 μl extracellular saline buffer, and transferred to a 1.5-ml tube.
After manually placing the AVIVA Biosciences SealChip 16™ in the holder of the PatchXpress®, the SealChip16™ was automatically prepared for application of the cells. Intracellular solution containing (in mM) CsCl, 135; EGTA, 11; MgCl2, 1; HEPES, 10; ATP, 5; GTP, 0.3 (pH 7.3 with CsOH, 290-300 mOsmol) was injected into the bottom of each chamber, and extracellular solution containing (in mM) NaCl, 140; KCl, 4; CaCl2, 1.8; MgCl2, 1; glucose, 10; HEPES, 10; ATP-K2, 5 (pH 7.4 with NaOH 305-310 mOsmol) was perfused into the top of the chambers through a 16-nozzle wash station. Throughout this period, the pressure controller maintained a positive pressure (+10 mmHg) from the intracellular side to keep the hole free of debris. Seal formation was achieved by a ramp increase in negative pressure from 0 to −35 mmHg at a rate of −3.5 mmHg/s every 10 s until a giga ohm seal was obtained and verified for 30 s.
Compounds were prepared from fresh DMSO stock and were transferred to a 96-well disposable glass insert compound plate for placement in the PatchXpress®. A full 10 point concentration-response curve for GABA was obtained for the GABA receptor cell line, from which an EC20 was estimated. Test compounds were assayed for their ability to potentiate the current response by an EC20 concentration of GABA. Each experiment began by two consecutive applications of GABA EC20 alone. Following formation of a giga-ohm seal, patch chambers were perfused with extracellular saline for 60 s to remove excess cells from the well. Cells were then voltage-clamped to −60 mV for the duration of the experiment. After 60 s, 30 μl (10 μl/s over 3 s) of GABA EC20 concentration, which elicited a GABA receptor-mediated inward Cl^− current generally in the order of 200-300 pA in peak amplitude, was added to each chamber. The GABA EC20 concentration was then washed out of the recording chamber after 5 s and washing with extracellular saline was continued for 60 s. After another 60 s, a second GABA EC20 concentration was applied under the same paradigm. […] Following the second GABA EC20 application, the lowest concentration of test compound in the presence of the GABA EC20 concentration was similarly applied. Ascending concentrations of the test compound were applied successively to an individual well in the presence of the GABA EC20 concentration.
Only cells meeting strict predetermined patch-clamp QC parameters, including seal resistance, membrane resistance, and holding current were included in data analysis. GABA current responses in the presence of test compound were measured and expressed as the mean of the initial control GABA EC20 current responses. The peak current amplitude was measured using DataXpress/pCLAMP9 (Axon Instruments). Linear leak subtraction was performed off-line. […]

T1 sequence (P23576 29-451): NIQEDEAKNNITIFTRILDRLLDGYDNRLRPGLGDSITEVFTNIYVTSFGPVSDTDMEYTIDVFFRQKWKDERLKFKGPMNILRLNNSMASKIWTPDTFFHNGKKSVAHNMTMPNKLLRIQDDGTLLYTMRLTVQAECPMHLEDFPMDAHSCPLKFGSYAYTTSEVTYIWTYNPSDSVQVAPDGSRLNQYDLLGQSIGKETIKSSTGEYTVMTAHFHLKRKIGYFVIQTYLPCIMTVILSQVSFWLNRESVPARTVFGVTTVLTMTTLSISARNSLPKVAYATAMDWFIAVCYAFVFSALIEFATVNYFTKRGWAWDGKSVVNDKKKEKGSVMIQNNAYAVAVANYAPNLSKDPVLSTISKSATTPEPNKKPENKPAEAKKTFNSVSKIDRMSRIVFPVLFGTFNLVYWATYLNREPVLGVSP
T1 sequence (P63138 25-474 partner limits assumed): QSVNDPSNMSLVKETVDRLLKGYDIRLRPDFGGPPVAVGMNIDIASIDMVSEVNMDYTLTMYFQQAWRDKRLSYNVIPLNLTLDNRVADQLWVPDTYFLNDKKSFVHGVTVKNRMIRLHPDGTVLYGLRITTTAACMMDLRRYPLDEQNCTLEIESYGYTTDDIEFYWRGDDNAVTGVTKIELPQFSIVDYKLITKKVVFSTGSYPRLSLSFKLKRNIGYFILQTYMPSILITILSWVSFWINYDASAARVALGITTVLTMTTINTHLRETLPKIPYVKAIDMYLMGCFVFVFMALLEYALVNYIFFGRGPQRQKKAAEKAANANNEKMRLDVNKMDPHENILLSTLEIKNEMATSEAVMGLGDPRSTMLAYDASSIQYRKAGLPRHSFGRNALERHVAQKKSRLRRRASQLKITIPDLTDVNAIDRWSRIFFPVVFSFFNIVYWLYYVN
T1 sequence (P18508 39-466 partner): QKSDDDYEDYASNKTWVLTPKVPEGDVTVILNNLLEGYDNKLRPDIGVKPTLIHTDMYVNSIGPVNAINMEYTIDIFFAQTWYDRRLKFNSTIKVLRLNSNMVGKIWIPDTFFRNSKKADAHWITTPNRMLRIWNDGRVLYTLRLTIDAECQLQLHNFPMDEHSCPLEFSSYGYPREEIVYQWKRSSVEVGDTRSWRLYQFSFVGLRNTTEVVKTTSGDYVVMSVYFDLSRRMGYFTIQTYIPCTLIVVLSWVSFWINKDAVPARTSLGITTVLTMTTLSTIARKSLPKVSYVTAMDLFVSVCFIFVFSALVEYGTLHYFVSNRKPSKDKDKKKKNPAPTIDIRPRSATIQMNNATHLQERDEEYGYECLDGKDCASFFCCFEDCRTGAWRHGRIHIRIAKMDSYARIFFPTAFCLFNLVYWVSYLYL

SMILES | Emax
C#Cc1ccc2c(c1)C(c1ccccc1)=NCc1c(C(=O)NCc3ccco3)ncn1-2 [Example 35, 8-Ethynyl-N-(furan-2-ylmethyl)-6-phenyl-4H-benzo[f]imidazo[1,5-a][1,4]diazepine-3-carboxamide, dihydrochloride] | 200 to 300%
C#Cc1ccc2c(c1)C(c1ccccc1)=NCc1c(C(=O)NCCCOC)ncn1-2 [Example 18, 8-Ethynyl-N-(3-methoxypropyl)-6-phenyl-4H-benzo[f]imidazo[1,5-a][1,4]diazepine-3-carboxamide] | 400 to 500%
C#Cc1ccc2c(c1)C(c1ccccc1)=NCc1c(C(=O)NCC3CCCO3)ncn1-2 (stereo not shown) [Example 36, 8-Ethynyl-6-phenyl-N-((tetrahydrofuran-2-yl)methyl)-4H-benzo[f]imidazo[1,5-a][1,4]diazepine-3-carboxamide, dihydrochloride] | 300 to 400%
C#Cc1ccc2c(c1)C(c1ccccc1)=NCc1c(C(=O)NCCOCCC)ncn1-2 [Example 19, 8-Ethynyl-6-phenyl-N-(2-propoxyethyl)-4H-benzo[f]imidazo[1,5-a][1,4]diazepine-3-carboxamide] | 400 to 500%
C#Cc1ccc2c(c1)C(c1ccccc1)=NCc1c(C(=O)NC3CC3)ncn1-2 [Example 10, N-Cyclopropyl-8-ethynyl-6-phenyl-4H-benzo[f]imidazo[1,5-a][1,4]diazepine-3-carboxamide] | > 500%
C#Cc1ccc2c(c1)C(c1ccccc1)=NCc1c(C(=O)NCC(O)CC)ncn1-2 (stereo not shown) [Example 26, 8-Ethynyl-N-(2-hydroxybutyl)-6-phenyl-4H-benzo[f]imidazo[1,5-a][1,4]diazepine-3-carboxamide] | 200 to 300%
C#Cc1ccc2c(c1)C(c1ccccc1)=NCc1c(C(=O)N(CCOC)CCOC)ncn1-2 [Example 16, 8-Ethynyl-N,N-bis(2-methoxyethyl)-6-phenyl-4H-benzo[f]imidazo[1,5-a][1,4]diazepine-3-carboxamide] | 200 to 300%
C#Cc1ccc2c(c1)C(c1ccccc1)=NCc1c(C(=O)NC(CC)COC)ncn1-2 (stereo not shown) [Example 13, 8-Ethynyl-N-(1-methoxybutan-2-yl)-6-phenyl-4H-benzo[f]imidazo[1,5-a][1,4]diazepine-3-carboxamide] | 200 to 300%
C#Cc1ccc2c(c1)C(c1ccccc1)=NCc1c(C(=O)N3CCOCC3)ncn1-2 [Example 9] | 400 to 500%
C#Cc1ccc2c(c1)C(c1ccccn1)=NCc1c(C(=O)NCCOC)ncn1-2 [Example 37, 8-Ethynyl-N-(2-methoxyethyl)-6-(pyridin-2-yl)-4H-benzo[f]imidazo[1,5-a][1,4]diazepine-3-carboxamide] | 200 to 300%
